{"source": "patent US7718638B2", "about": "“(20R)-23,23-difluoro-2-methylene-19-nor-bishomopregnacalciferol-vitamin D analogs” (Wisconsin Alumni Research Foundation, priority 2007, dated 2010)", "key": {"HL-60 cells": {"test_system": "HL-60 cells", "test": "HL-60 cell differentiation (nitro blue tetrazolium reduction)", "assay_type": "cell-based, human", "details": "FIG. 2; for EC50: HL-60 cells, 4 days", "protocol": "The study drugs were dissolved in ethanol and the concentrations determined using UV spectrophotometry. Serial dilutions were prepared so that a range of drug concentrations could be tested without changing the final concentration of ethanol (≦0.2%) present in the cell cultures.\nHuman promyelocytic leukemia (HL60) cells were grown in RPMI-1640 medium containing 10% fetal bovine serum. The cells were incubated at 37° C. in the presence of 5% CO2.\nHL60 cells were plated at 1.2×10^5 cells/ml. Eighteen hours after plating, cells in duplicate were treated with drug. Four days later, the cells were harvested and a nitro blue tetrazolium reduction assay was performed (Collins et al., 1979; J. Exp. Med. 149:969-974). The percentage of differentiated cells was determined by counting a total of 200 cells and recording the number that contained intracellular black-blue formazan deposits. Verification of differentiation to monocytic cells was determined by measuring phagocytic activity (data not shown)."}, "Sprague-Dawley rats [1]": {"test_system": "Sprague-Dawley rats", "test": "Intestinal calcium transport (everted gut sac) in vitamin D-deficient rats", "assay_type": "in vivo, rat", "details": "FIG. 5; for intestinal calcium transport: everted gut sac", "protocol": "(§1) Intestinal Calcium Transport and Bone Calcium Mobilization\n(§2) Male, weanling Sprague-Dawley rats were placed on Diet 11 (0.47% Ca) diet+AEK oil for one week followed by Diet 11 (0.02% Ca)+AEK oil for 3 weeks. The rats were then switched to a diet containing 0.47% Ca for one week followed by two weeks on a diet containing 0.02% Ca. Dose administration began during the last week on 0.02% calcium diet. Four consecutive ip doses were given approximately 24 hours apart. Twenty-four hours after the last dose, blood was collected from the severed neck and the concentration of serum calcium determined as a measure of bone calcium mobilization. The first 10 cm of the intestine was also collected for intestinal calcium transport analysis using the everted gut sac method."}, "Sprague-Dawley rats [2]": {"test_system": "Sprague-Dawley rats", "test": "Bone calcium mobilization (serum calcium) in vitamin D-deficient rats", "assay_type": "in vivo, rat", "details": "FIG. 4; for bone calcium mobilization (serum calcium levels): dose not given, vitamin D-deficient rats on 0.02% Ca diet; for bone calcium mobilization: rats on 0.02% Ca diet", "protocol": "as §1, §2"}, "[3]": {"molecular_target": "T1, full-length recombinant rat vitamin D receptor (Rattus norvegicus, UniProt P13053)", "T1 construct": "Full-length recombinant rat receptor was expressed in E. coli; histidine tag (C); made in house; host or cells: E. coli BL21 (DE3) Codon Plus RIL", "T1 sequence (P13053 1-423)": "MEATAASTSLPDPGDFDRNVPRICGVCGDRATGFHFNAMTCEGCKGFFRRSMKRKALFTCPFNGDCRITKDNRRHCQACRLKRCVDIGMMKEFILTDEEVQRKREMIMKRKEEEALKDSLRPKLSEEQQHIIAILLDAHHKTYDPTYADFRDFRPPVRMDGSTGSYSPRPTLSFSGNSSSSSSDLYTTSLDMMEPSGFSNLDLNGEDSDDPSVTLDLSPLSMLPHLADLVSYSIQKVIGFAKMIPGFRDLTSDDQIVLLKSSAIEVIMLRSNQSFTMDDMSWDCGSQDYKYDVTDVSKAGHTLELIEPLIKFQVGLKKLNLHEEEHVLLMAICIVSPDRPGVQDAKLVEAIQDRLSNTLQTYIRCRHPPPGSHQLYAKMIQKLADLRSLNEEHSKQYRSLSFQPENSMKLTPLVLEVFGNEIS", "test": "Vitamin D receptor competitive binding with [3H]-1,25(OH)2D3", "details": "FIG. 1", "description": "Vitamin D Receptor Binding\nFull-length recombinant rat receptor was expressed in E. coli BL21 (DE3) Codon Plus RIL cells and purified to homogeneity using two different column chromatography systems. The first system was a nickel affinity resin that utilizes the C-terminal histidine tag on this protein. The protein that was eluted from this resin was further purified using ion exchange chromatography (S-Sepharose Fast Flow). Aliquots of the purified protein were quick frozen in liquid nitrogen and stored at −80° C. until use. For use in binding assays, the protein was diluted in TEDK50 (50 mM Tris, 1.5 mM EDTA, pH 7.4, 5 mM DTT, 150 mM KCl) with 0.1% Chaps detergent. The receptor protein and ligand concentration were optimized such that no more than 20% of the added radiolabeled ligand was bound to the receptor.\nRadiolabeled and unlabeled ligands were added to 100 mcl of the diluted protein at a final ethanol concentration of ≦10%, mixed and incubated overnight on ice to reach binding equilibrium. The following day, 100 mcl of hydroxylapatite slurry (50%) was added to each tube and mixed at 10-minute intervals for 30 minutes. […] After the final wash, the pellets were transferred to scintillation vials containing 4 ml of Biosafe II scintillation cocktail, mixed and placed in a scintillation counter. Total binding was determined from the tubes containing only radiolabeled ligand."}, "[4]": {"test_system": "24-hydroxylase (24Ohase) gene promoter in ROS 17/2.8 (bone) cells", "test": "In vitro transcription assay (24-hydroxylase promoter luciferase reporter)", "assay_type": "cell-based", "details": "FIG. 3", "protocol": "In Vitro Transcription Assay\nTranscription activity was measured in ROS 17/2.8 (bone) cells that were stably transfected with a 24-hydroxylase (24Ohase) gene promoter upstream of a luciferase reporter gene (Arbour et al., 1998). Cells were given a range of doses. Sixteen hours after dosing the cells were harvested and luciferase activities were measured using a luminometer.\nRLU=relative luciferase units."}}, "note": "Entries after “also recorded” stand apart in the source; their conditions may differ.", "data": [{"smiles": "C=C1/C(=C\\C=C2/CCC[C@]3(C)[C@@H]([C@H](C)CCCC(C)(C)O)CC[C@@H]23)C[C@@H](O)C[C@@H]1O", "note": "[1,25(OH)2D3, 1α,25-dihydroxyvitamin D3, reference compound]", "values": [{"measurement": "EC50", "setting": "HL-60 cells", "result": 2, "unit": "nM"}, {"measurement": "intestinal calcium transport", "setting": "Sprague-Dawley rats [1]; 87 pmol/day", "result": "promotes a significant increase"}, {"measurement": "bone calcium mobilization (serum calcium levels)", "setting": "Sprague-Dawley rats [2]", "result": "increased serum calcium levels"}]}, {"smiles": "C=C1[C@H](O)CC(=C/C=C2\\CCC[C@]3(C)[C@@H]([C@@H](C)CC(F)F)CC[C@@H]23)C[C@H]1O", "note": "[FF-44, (20R)-23,23-difluoro-1α-hydroxy-2-methylene-19-nor-bishomopregnacalciferol]", "values": [{"measurement": "EC50", "setting": "HL-60 cells; Homo sapiens, 96 h", "result": 100, "unit": "nM"}, {"measurement": "potency on HL-60 cell differentiation as compared to 1,25(OH)2D3", "setting": "HL-60 cells; in words", "result": "almost as potent as 1,25(OH)2D3"}, {"measurement": "Ki", "setting": "[3]; full-length recombinant rat VDR, read-out: Ki, competition with [3H]-1,25(OH)2D3 for binding to the vitamin D receptor", "result": 0.2, "unit": "nM"}, {"measurement": "binding to the vitamin D receptor as compared to 1,25-(OH)2D3", "setting": "[3]; in words", "result": "bound almost equally"}, {"measurement": "intestinal calcium transport", "setting": "Sprague-Dawley rats [1]; 2340 pmol/day", "result": "does not promote intestinal calcium transport"}, {"measurement": "intestinal calcium transport", "setting": "Sprague-Dawley rats [1]; 35100 pmol/day", "result": "no significant intestinal calcium transport activity"}, {"measurement": "intestinal calcium transport activity as compared to 1,25(OH)2D3", "setting": "Sprague-Dawley rats [1]; in words, dose not stated", "result": "very little activity"}, {"measurement": "bone calcium mobilization", "setting": "Sprague-Dawley rats [2]; 2340 pmol/day ip for 4 consecutive days", "result": "did not result in mobilization of bone calcium"}, {"measurement": "bone calcium mobilization", "setting": "Sprague-Dawley rats [2]; 35100 pmol/day ip for 4 consecutive days", "result": "without any effect"}, {"measurement": "bone calcium mobilization (serum calcium levels)", "setting": "Sprague-Dawley rats [2]", "result": "very little bone calcium mobilization activity; also recorded: little, if any, activity in mobilizing calcium from bone"}, {"measurement": "EC50", "setting": "[4]; ROS 17/2.8 cells, 24Ohase-luciferase, 16 h, read-out: EC50, transcriptional activity in bone cells", "result": 10, "unit": "nM"}, {"measurement": "transcriptional activity in bone cells as compared to 1α,25-dihydroxyvitamin D3", "setting": "[4]; in words", "result": "about the same transcriptional activity"}]}]}
